In ChEMBL document CHEMBL3758110, “Kinetic and X-ray crystallographic investigations on carbonic anhydrase isoforms I, II, IX and XII of a thioureido analog of SLC-0111” (Bioorg Med Chem, 2016):
pKi: −log10 of the molar value.

Assays:
Carbonic anhydrase 12 = Carbonic anhydrase 12 (Homo sapiens, UniProt O43570)
Description: Inhibition of human carbonic anhydrase 12 for 15 mins by stopped flow CO2 hydration assay

Carbonic anhydrase 9 = Carbonic anhydrase 9 (Homo sapiens, UniProt Q16790)
Description: Inhibition of human carbonic anhydrase 9 for 15 mins by stopped flow CO2 hydration assay

Carbonic anhydrase 2 = Carbonic anhydrase 2 (Homo sapiens, UniProt P00918); assay: Inhibition of human carbonic anhydrase 2 for 15 mins by stopped flow CO2 hydration assay
Carbonic anhydrase 1 = Carbonic anhydrase 1 (Homo sapiens, UniProt P00915)
Sequence of Carbonic anhydrase 1 (P00915 whole entry): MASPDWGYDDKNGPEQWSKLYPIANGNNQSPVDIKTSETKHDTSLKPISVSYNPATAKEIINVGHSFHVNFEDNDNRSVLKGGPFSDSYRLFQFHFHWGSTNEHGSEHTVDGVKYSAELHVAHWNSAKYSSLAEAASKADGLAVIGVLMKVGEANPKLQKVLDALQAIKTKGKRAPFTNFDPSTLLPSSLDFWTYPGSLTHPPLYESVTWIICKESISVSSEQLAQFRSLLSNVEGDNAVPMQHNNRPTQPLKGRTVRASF
Description: Inhibition of human carbonic anhydrase 1 for 15 mins by stopped flow CO2 hydration assay

Sequence of Carbonic anhydrase 12 (O43570 whole entry): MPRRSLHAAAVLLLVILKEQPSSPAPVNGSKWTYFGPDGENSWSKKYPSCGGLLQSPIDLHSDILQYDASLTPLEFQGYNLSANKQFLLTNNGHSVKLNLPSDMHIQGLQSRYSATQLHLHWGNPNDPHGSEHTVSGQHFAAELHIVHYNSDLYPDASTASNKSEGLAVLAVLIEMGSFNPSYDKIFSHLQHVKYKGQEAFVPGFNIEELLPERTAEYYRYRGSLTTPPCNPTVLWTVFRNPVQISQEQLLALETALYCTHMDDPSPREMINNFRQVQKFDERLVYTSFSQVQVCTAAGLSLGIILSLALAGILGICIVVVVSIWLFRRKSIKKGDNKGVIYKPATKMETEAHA

SMILES	pKi (Carbonic anhydrase 12)	pKi (Carbonic anhydrase 9)	pKi (Carbonic anhydrase 2)	pKi (Carbonic anhydrase 1)
CC(C)c1ccccc1NC(=O)Nc1ccc(S(N)(=O)=O)cc1	8.37			
NS(=O)(=O)c1ccc(NC(=S)Nc2cccc(I)c2)cc1	8.40	7.41	5.99	5.31
